The test system of experiment [1] is S. aureus. Kind of experiment: Dye coatings from different solvents on towels exposed to S. aureus. The method, then:
The behavior of Reichardt's dye coatings made using various different solvents was evaluated. Solutions of Reichardt's dye in acetonitrile, isopropanol, and xylenes were prepared and the solutions were used to coat SCOTT® kitchen rolls towels and allowed to air-dry. […] Though the color of the dye was less intense than that seen with acetonitrile, the color change due to microbial contamination was still readily observed.

Another experiment relates to measles. Put plainly: Virus detection on Reichardt's dye-coated stickers. To be noted: undiluted virus, 50 microliters, 3 minutes.
The test system of experiment [2] is aged chicken juice known to have a high bacterial count. Kind of experiment: Dye coating with or without TWEEN 80 on ceramic surface exposed to aged chicken juice. The note with it: coating with TWEEN 80 surfactant; 80 mg/10 mL acetonitrile. The text has this:
This solution was then used to coat a ceramic surface and allowed to air dry. […] After drying, a drop of aged chicken juice known to have a high bacterial count was placed on the each coating area. […] Furthermore, the addition of TWEEN® surfactant allowed for easy removal of the dye from the surface.

The test system of experiment [3] is aged chicken juice (bacteria). Kind of experiment: Dye spray on hot plate: aged chicken juice versus canned chicken broth. The note with it: 160 mg/10 mL isopropanol spray. The text has this:
Canned chicken broth was utilized as a control that would contain chicken derived products such as lipids, protein, etc., to check for potential interferences from these naturally occurring materials. Freshly opened Swanson® Chicken Broth was pipette onto a hot plate surface and wiped dry with a SCOTT® towel. Juice from raw chicken that had been stored at room temperature for several days was also pipetted onto the hot plate and wiped dry as a positive control. […] Thus, in the case of chicken, the presence of microbes was clearly responsible for triggering the change in color, and not some other component, such as chicken fat or proteins.

Experiment [4] deals with Herpes Simplex Virus 1 (HSV-1). Put plainly: Virus detection on Reichardt's dye-coated stickers. The note with it: undiluted virus, 50 microliters, 3 minutes.
A further experiment deals with A. niger. Kind of experiment: Titration of microorganisms with Reichardt's dye on cellulosic towel. To be noted: mold, 10^5.
For a further experiment, the system named is E. coli. Kind of experiment: Dye-coated towel rubbed with dry E. coli colony. The note with it: dry colony rubbed onto pre-moistened coated towel. The method, then: A test using the Reichardt's dye coated paper towel with a “dry” bacteria sample was carried out. Specifically, a dry sample of a colony of E. coli bacteria was lifted off an agar petri dish that contained a series of growing cultures. This dry sample was then rubbed onto a pre-moistened dye coated SCOTT® paper towel. The area where the colony was placed and rubbed turned colorless within 1 to 5 seconds.

Another experiment has as its system P. aeruginosa. Kind of experiment: Titration of microorganisms with Reichardt's dye on cellulosic towel. The note with it: Gram(-), 10^7 CFU/mL, 100 microliters.
Experiment [5] concerns S. aureus. Put plainly: Color change of Reichardt's dye-treated elastomeric gloves on contact with S. aureus. The note with it: natural rubber latex glove; 160 mg dye/10 mL acetonitrile; 10^7 CFU/mL S. aureus. The text has this:
Specifically, a solution of Reichardt's dye (160 milligrams per 10 milliliters of acetonitrile) was brushed onto a piece of a natural rubber latex glove (commercially available from Kimberly-Clark Corp.). A 100-microliter drop of 10^7 CFU/mL S. aureus was then applied to the surface of the glove and gently spread using a disposable pipette. Thereafter, a finger of a second natural rubber latex glove (commercially available from Kimberly-Clark Corp.) was dipped into a solution of Reichardt's dye (160 milligrams per 10 milliliters of acetonitrile). After drying, the fingers of the second glove were used to spread bacteria from the S. aureus droplet placed onto the piece of latex glove to another area on the latex piece.

Experiment [6] in a line: Color change of dye with bacterial cell-wall compounds on paper towel. Further details: species or system E. coli; Streptococcus faecalis. The note with it: detoxified LPS, lipoteichoic acid.
Experiment [7] deals with S. aureus. Kind of experiment: Titration of serially diluted S. aureus suspensions on paper towel with dye. The source says:
100 microliters of serially diluted S. aureus bacterial suspensions were placed onto a SCOTT® paper towel. Drops (10 microliters) of the Reichardt's dye in acetonitrile solution (40 milligrams/10 milliliters) were then pipetted onto each spot where the bacteria was placed. The dye solution changed color in less than 1 second. […] This was repeated on each spot corresponding to where different concentrations of bacteria were placed.

For the next experiment, the system named is G. vaginalis. Kind of experiment: Titration of microorganisms with Reichardt's dye on cellulosic towel. To be noted: Gram(-), 10^7 CFU/mL, 100 microliters.
In another experiment the test system is Polio virus type 1. To be noted: virus diluted serially in media; 50 microliters, 3 minutes.
The nature of experiment [8]: Color change of dye with bacterial cell-wall compounds on paper towel. To be noted: both experimental set-ups; 160 mg/10 mL acetonitrile.
The nature of experiment [9]: Reichardt's dye and TMB coated towel exposed to dilute bleach. The note with it: towel coated with mixture of Reichardt's dye and TMB.
Experiment [10] relates to aged, pooled female urine. Put plainly: Bacterial quantification of aged pooled female urine by dye titration. To be noted: 100 microliters urine. The text has this:
Table 2 presents the volume of each dye solution required for the dye color to remain steady.

Another experiment concerns aged chicken juice. Put plainly: Comparative dyes dropped onto aged chicken juice on paper towel. To be noted: aged chicken juice on SCOTT paper towel.

Turning to `[O-]c1c(-c2ccccc2)cc(-[n+]2c(-c3ccccc3)cc(-c3ccccc3)cc2-c2ccccc2)cc1-c1ccccc1` [Reichardt's dye, 4-(2,4,6-triphenylpyridinium-1-yl)-2,6-diphenylphenolate], the “Color change of coating where bacterial suspension was placed” value is recorded as “rapid color change” in the experiment on S. aureus [1] (acetonitrile solution-based coating); “No visible color change” with S. aureus [1] (isopropanol and xylenes coatings). Moreover, the De-colorization of sticker result in the experiment on measles was “less than that observed for the other viruses”; in experiment [4], “stronger de-colorization of the sticker than that observed for Rhinovirus and Polio virus”. Besides, the “Time to color change” value in [2] lay in the range of 20 to 30 s. Also, the “Color change on hot plate surface” value in experiment [3] is given as “only the side containing the aged chicken juice (and thus bacteria) changed color”. Further, the “Amount of Dye Required for Persistent Color” value came out at 50 µL in the experiment with A. niger, 80 µL in the experiment on P. aeruginosa and 90 µL in the experiment on G. vaginalis. Besides, in the experiment on E. coli, the “Time to turn colorless” value is 1 to 5 s. Besides, the “Color change of glove piece and glove finger” value in the experiment on S. aureus [5] is reported as “immediately changed”. In [6], the “Color change of dye with the other cell-wall compounds” value is given as “eventual color change”. Besides, the “Time for dye solution to change color” value in the experiment on S. aureus [7] (10 microliter drops, 40 mg/10 mL acetonitrile, on S. aureus spots) is “less than 1 second”. The “Correlation of titration with level of bacterial contamination” value in the experiment on S. aureus [7] (drops added until color remained steady) is on record as “good correlation”. The “Ten-fold dilution down to which stickers changed color” value in the experiment with Polio virus type 1 is 10^−6. Moreover, the “Color change of dye with muramic acid” value in experiment [8] was “near instantaneous color change”. The “Color response to dilute bleach solution” value in experiment [9] is “de-colorizing”. Further, in the experiment with Rhinovirus (100 microliters undiluted virus, 80 mg/10 mL acetonitrile with or without TWEEN 80), the “Dye added until the color persisted” value is “approximately 9 drops”. Further, in the experiment on Rhinovirus (surfactant- and non-surfactant-containing solutions), the “Discharge of dye color on virus spot” value was “rapidly discharged”. Besides, the “Volume of dye solution required for the dye color to remain steady” value in experiment [10] (4 mg/ml dye solution in acetonitrile) amounted to 120 µL; in [10] (16 mg/ml dye solution in acetonitrile) it was 30 µL. Besides, the “Color change on dropping dye onto aged chicken juice” value in the experiment with aged chicken juice is “immediately changed color”.
